Assay results reported in US20230017045A1, “PYRIDINE AND PYRIMIDINE CARBOXYLATE HERBICIDES AND METHODS OF USE THEREOF” (Dow AgroSciences LLC, priority 2017, published 2023).
Where two headings read alike, the source gives them in different places.

Test system: test plant species
Assay: Post-emergent herbicidal activity test (greenhouse, foliar spray, visual growth reduction)
Format: in vivo
Details: post-emergence, 336 h, 140 g ai/ha, 14 days after application
How it was run: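 Seedlings were raised 7-21 d in a greenhouse under a 15 h photoperiod until the first or second true leaf. Each compound, dissolved in acetone:DMSO 97:3 and diluted into a surfactant-containing spray mixture, was then applied at 187 L/ha. Plants were subirrigated, and growth reduction was scored visually at 14 d.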

[1] = ALOMY: blackgrass (Alopecurus myosuroides), read-out: Visual Growth Reduction (%) 14 Days After Application, ALOMY
[2] = AMARE: redroot pigweed (Amaranthus retroflexus), read-out: Visual Growth Reduction (%) 14 Days After Application, AMARE
[3] = AVEFA: wild oat (Avena fatua), read-out: Visual Growth Reduction (%) 14 Days After Application, AVEFA
[4] = CHEAL: lambsquarters (Chenopodium album), read-out: Visual Growth Reduction (%) 14 Days After Application, CHEAL
[5] = CIRAR: canada thistle (Cirsium arvense), read-out: Visual Growth Reduction (%) 14 Days After Application, CIRAR
[6] = CYPES: yellow nutsedge (Cyperus esculentus), read-out: Visual Growth Reduction (%) 14 Days After Application, CYPES
[7] = DIGSA: crabgrass (Digitaria sanguinalis), read-out: Visual Growth Reduction (%) 14 Days After Application, DIGSA
[8] = ECHCG: barnyardgrass (Echinochloa crus-galli), read-out: Visual Growth Reduction (%) 14 Days After Application, ECHCG
[9] = IPOHE: ivy-leaf morning glory (Ipomoea hederacea), read-out: Visual Growth Reduction (%) 14 Days After Application, IPOHE
[10] = ORYSA: rice (Oryza sativa), read-out: Visual Growth Reduction (%) 14 Days After Application, ORYSA
[11] = SETFA: giant foxtail (Setaria faberi), read-out: Visual Growth Reduction (%) 14 Days After Application, SETFA
[12] = SORVU: grain sorghum (Sorghum vulgare), read-out: Visual Growth Reduction (%) 14 Days After Application, SORVU
[13] = STEME: common chickweed (Stellaria media), read-out: Visual Growth Reduction (%) 14 Days After Application, STEME
[14] = TRZAS: wheat, spring (Triticum aestivum), read-out: Visual Growth Reduction (%) 14 Days After Application, TRZAS
[15] = KCHSC: kochia (Bassia scoparia), read-out: Visual Growth Reduction (%) 14 Days After Application, KCHSC

| Structure (SMILES) | pest or weed control at 140 g/ha [1] [%] | pest or weed control at 140 g/ha [2] [%] | pest or weed control at 140 g/ha [3] [%] | pest or weed control at 140 g/ha [4] [%] | pest or weed control at 140 g/ha [5] [%] | pest or weed control at 140 g/ha [6] [%] | pest or weed control at 140 g/ha [7] [%] | pest or weed control at 140 g/ha [8] [%] | pest or weed control at 140 g/ha [9] [%] | pest or weed control at 140 g/ha [10] [%] | pest or weed control at 140 g/ha [11] [%] | pest or weed control at 140 g/ha [12] [%] | pest or weed control at 140 g/ha [13] [%] | pest or weed control at 140 g/ha [14] [%] | pest or weed control at 140 g/ha [15] [%] |
| --- | --- | --- | --- | --- | --- | --- | --- | --- | --- | --- | --- | --- | --- | --- | --- |
| COC(=O)c1nc(-c2ccc(Cl)c(OC)c2F)ncc1Cl [F115, methyl 5-chloro-2-(4-chloro-2-fluoro-3-methoxyphenyl)pyrimidine-4-carboxylate] | 0 to 29 | 0 to 29 | 0 to 29 | 0 to 29 | 60 to 74 | 0 to 29 | 0 to 29 | 0 to 29 | 30 to 44 | 0 to 29 | 0 to 29 | 0 to 29 | 0 to 29 | 0 to 29 |  |
| O=C(OCc1ccc(Cl)cc1Cl)c1nc(-c2ccc(C(F)(F)F)cc2Cl)ccc1Cl [F116, 2,4-dichlorobenzyl 3-chloro-6-(2-chloro-4-(trifluoromethyl)phenyl)picolinate] | 30 to 44 | 95 to 100 | 45 to 59 | 85 to 94 | 85 to 94 | 0 to 29 | 85 to 94 | 75 to 84 | 85 to 94 | 0 to 29 | 60 to 74 | 85 to 94 | 0 to 29 | 60 to 74 | 75 to 84 |
| O=C(OCc1cccc(C(F)(F)F)c1)c1nc(-c2ccc(C(F)(F)F)cc2Cl)ccc1Cl [F117, 3-(Trifluoromethyl) benzyl 3-chloro-6-(2-chloro-4-(trifluoromethyl)phenyl)picolinate] | 45 to 59 | 95 to 100 | 60 to 74 | 95 to 100 | 85 to 94 | 0 to 29 | 95 to 100 | 85 to 94 | 95 to 100 | 0 to 29 | 95 to 100 | 95 to 100 | 0 to 29 | 85 to 94 | 95 to 100 |
| COC(=O)c1nc(-c2c(Cl)cc(C(F)(F)F)cc2C#N)ccc1Cl [F118, Methyl 3-chloro-6-(2-chloro-6-cyano-4-(trifluoromethyl)phenyl)picolinate] | 30 to 44 | 95 to 100 | 60 to 74 | 95 to 100 | 95 to 100 | 45 to 59 | 85 to 94 | 85 to 94 | 95 to 100 | 60 to 74 | 60 to 74 | 85 to 94 | 0 to 29 | 0 to 29 | 95 to 100 |
| COC(=O)c1nc(-c2ccc(C(F)(F)F)c([S+](C)[O-])c2Cl)ccc1Cl (centres unmarked) [F119, methyl 3-chloro-6-(2-chloro-3-(methylsulfinyl)-4-(trifluoromethyl)phenyl)picolinate] | 0 to 29 | 0 to 29 | 0 to 29 | 0 to 29 | 0 to 29 | 0 to 29 | 0 to 29 | 0 to 29 | 0 to 29 | 0 to 29 | 0 to 29 | 0 to 29 | 0 to 29 | 0 to 29 | 0 to 29 |
| COC(=O)c1nc(-c2c(Cl)cc(C(F)(F)F)cc2[S+](C)[O-])ccc1Cl (centres unmarked) [F120, methyl 3-chloro-6-(2-chloro-6-(methylsulfinyl)-4-(trifluoromethyl)phenyl)picolinate] | 0 to 29 | 45 to 59 | 0 to 29 | 30 to 44 | 60 to 74 | 0 to 29 | 0 to 29 | 0 to 29 | 30 to 44 | 0 to 29 | 0 to 29 | 0 to 29 | 0 to 29 | 0 to 29 | 60 to 74 |
| COC(=O)c1nc(-c2ccc(C(F)(F)F)c(SC)c2Cl)ccc1Cl [F121, methyl 3-chloro-6-(2-chloro-3-(methylthio)-4-(trifluoromethyl)phenyl)picolinate] | 0 to 29 | 30 to 44 | 0 to 29 | 0 to 29 | 0 to 29 | 0 to 29 | 0 to 29 | 0 to 29 | 0 to 29 | 0 to 29 | 0 to 29 | 0 to 29 | 0 to 29 | 0 to 29 | 0 to 29 |
| COC(=O)c1nc(-c2c(Cl)cc(C(F)(F)F)cc2SC)ccc1Cl [F122, methyl 3-chloro-6-(2-chloro-6-(methylthio)-4-(trifluoromethyl)phenyl)picolinate] | 0 to 29 | 95 to 100 | 0 to 29 | 60 to 74 | 60 to 74 | 0 to 29 | 30 to 44 | 45 to 59 | 95 to 100 | 0 to 29 | 85 to 94 | 75 to 84 | 0 to 29 | 0 to 29 | 75 to 84 |
| COC(=O)c1nc(-c2ccc(Oc3ccc(F)cc3)cc2Cl)ccc1Cl [F123, Methyl 3-chloro-6-(2-chloro-4-(4-fluorophe)phenyl) picolinate] | 0 to 29 | 0 to 29 | 0 to 29 | 0 to 29 | 0 to 29 | 0 to 29 | 0 to 29 | 0 to 29 | 30 to 44 | 0 to 29 | 0 to 29 | 0 to 29 | 0 to 29 | 0 to 29 | 0 to 29 |
| COC(=O)c1nc(-c2cc3c(cc2Cl)OC(F)(F)O3)ccc1Cl [F124, Methyl 3-chloro-6-(6-chloro-2,2-difluorobenzo[d] [1,3]dioxol-5-yl)picolinate] | 45 to 59 | 75 to 84 | 30 to 44 | 85 to 94 | 75 to 84 | 0 to 29 | 85 to 94 | 75 to 84 | 95 to 100 | 0 to 29 | 30 to 44 | 75 to 84 | 0 to 29 | 60 to 74 | 45 to 59 |
| COC(=O)c1nc(-c2ccc(C#N)c(Cl)c2)ccc1Cl [F125, Methyl 3-chloro-6-(3-chloro-4-cyanophenyl) picolinate] | 0 to 29 | 0 to 29 | 0 to 29 | 45 to 59 | 0 to 29 | 0 to 29 | 0 to 29 | 0 to 29 | 30 to 44 | 0 to 29 | 0 to 29 | 0 to 29 | 0 to 29 | 0 to 29 | 0 to 29 |
